Where two headings read alike, the source gives them in different places.
Legend:
in vitro [1] = settings: for HLM % remaining: % remaining at 60 min, 1 μM; for half-life at 1 μM: both, human
Method: Human Liver Microsomal metabolic stability: The microsomal metabolic stability assay utilized pooled human liver microsomes (mixed gender, BD Gentest), with supplemented cofactors NADPH and UDPGA (Solarbio S&T Co., LTD). Two separate experiments were performed as follows: • a) With cofactors (NADPH & UDPGA): 25 μL of 10 mM NADPH and 25 μL of 20 mM UDPGA were added to 197.5 μL of reaction solution (phosphate buffer (final concentration in assay 100 mM), MgCl2 (final concentration in assay (5 mM)), alamethacin (final concentration in assay 0.025 mg/mL) and microsomes (final concentration in assay 0.5 mg/mL). • b) Without cofactors (NADPH & UDPGA): 50 μL of H2O was added to 197.5 μL of reaction solution.
The mixture was pre-warmed at 37° C. for 10 minutes. The reaction was started with the addition of 2.5 μL of 100 μM control compound or test compound solutions. Diclofenac was used as positive control in this study. The final concentration of control compound and test compounds was 1 μM. Aliquots of 25 μL were taken from the reaction solution at 0.5, 5, 15, 30 and 60 minutes. The reaction was stopped by the addition of 5 volumes of cold acetonitrile containing internal standards. Samples were centrifuged at 3,220 g for 40 minutes. An aliquot of 100 μL of the supernatant was mixed with 100 μL of ultra-pure H2O and then used for LC-MS/MS analysis. Peak areas were determined from extracted ion chromatograms. Percent parent remaining was calculated from the area ratio of test compound. The slope value was determined by linear regression of the natural logarithm of percent parent remaining versus incubation time curve.
(§1) Peak areas were determined from extracted ion chromatograms to determine the in vitro half-life (t½) of parent compound by regression analysis of the percent parent disappearance vs. time curve. The in vitro half-life (in vitro t½) was determined from the slope value (in vitro t½=−0.693/k). All calculations were carried out using Microsoft Excel.

in vitro [2] = settings: for hHEPs % remaining: % remaining at 120 min, 1 μM; for half-life at 1 μM: human, hepatocytes
Method: Human Hepatocyte metabolic stability: Human hepatocytes (X008000, BioIVT) were freshly thawed prior to the incubations with test compound. Hepatocytes were transferred to 50 mL conical tubes and centrifuged 10 min at 100 g. Thawing medium was removed and replaced by preheated (37° C.) incubation medium (William's E Medium supplemented with GlutaMAX), to yield a hepatocyte density ˜1.5×10^6 cells/mL. Cell viability was determined using AO/PI staining and hepatocytes were diluted using incubation medium to a working density of 0.5×10^6 viable cells/mL. 198 μL of hepatocytes were added into each well of a 96-well plate and placed in the incubator to allow the hepatocytes to warm for 10 minutes. 2 μL test compound or positive control was placed into respective wells of the 96-well plate (final concentration test compound 1 μM) to start the reaction. The plate was returned to the incubator and 25 μL aliquots of the well contents were removed at time points of 0, 15, 30, 60, 90 and 120 minutes. The aliquots were mixed with 6 volumes (150 μL) of acetonitrile containing internal standards (100 nM alprazolam, 200 nM caffeine, and 100 nM tolbutamide) to terminate the reaction. The plate was centrifuged for 20 minutes at 3,200 g. Aliquots of 150 μL of the supernatants were used for LC/MS/MS analysis. All incubations were performed in duplicate.
as §1

CYP2C8 = CYP2C8 (Homo sapiens (Human), UniProt P10632); experiment: biochemical; type: in vitro ADME
Method: (§2) CYP inhibition: Co-incubation of compounds with P450 enzyme-selective substrates was performed using pooled human liver microsomes (Cat. No. H0610, Xenotech), to determine their potential to cause drug-drug interactions. The assay was performed in duplicate. The formation of acetaminophen, 7′-hydoxycoumarin, hydrobupropion, N-desethylamodiaquine, 4′-hydroxydiclofenac, 4′-hydroxymephenytoin, 1′-hydroxybufuralol, 6″-hydroxychlorzoxazone were quantified as markers for CYP1A2, CYP2A6, […], CYP2C8, CYP2C9, CYP2C19, […], CYP2E1, respectively. CYP3A4 inhibition was measured using 2 substrates, measuring the formation of […] (3A4-T), and 1′-hydroxymidazolam (3A4-M). The incubation was carried out in 96 deep well plates each well containing: 179 μL of the master solution (0.2 mg/mL microsomes plus CYP substrate (see below for final substrate concentration and incubation time for the different CYP assays)) in 100 mM phosphate buffer and 1 μL of the compound working solution or vehicle. The final concentrations of the compounds in the assay was 30 μM when using a single dose or 0.1, 0.3, 1, 3, 10 and 30 μM for a dose response.
(§3) The incubation plate was placed into a water bath and pre-warmed at 37° C. for 5 minutes before the reactions were started by the addition of 20 μL of 10 mM NADPH solution and incubated at 37° C. for the time listed above. The reaction was stopped by addition of 1.5 volumes (300 μL) of cold ACN containing 3% formic acid and 200 nM tolbutamide, 200 nM aprozolam and 200 nM labalol. The plate was centrifuged at 3,220 g for 50 minutes and then 200 μL of the supernatant was transferred to the analysis plate for LC/MS/MS analysis. The respective metabolite formation from each probe substrate was compared with that observed for the solvent control incubations.

CYP2B6 = CYP2B6 (Homo sapiens (Human), UniProt P20813); experiment: biochemical; type: in vitro ADME
Method: as §2, §3

CYP2D6 = CYP2D6 (Homo sapiens (Human), UniProt P10635); experiment: biochemical; type: in vitro ADME
Method: as §2, §3

CYP2C9 = CYP2C9 (Homo sapiens (Human), UniProt P11712); experiment: biochemical; type: in vitro ADME
Method: as §2, §3

CYP2A6 = CYP2A6 (Homo sapiens (Human), UniProt P11509); experiment: biochemical; type: in vitro ADME
Method: as §2, §3

CYP2C19 = CYP2C19 (Homo sapiens (Human), UniProt P33261); experiment: biochemical; type: in vitro ADME
Method: as §2, §3

CYP2E1 = CYP2E1 (Homo sapiens (Human), UniProt P05181); experiment: biochemical; type: in vitro ADME
Method: as §2, §3

CYP3A4 = CYP3A4 (Homo sapiens (Human), UniProt P08684); experiment: biochemical; type: in vitro ADME
Method: as §2, §3

CYP1A2 = CYP1A2 (Homo sapiens (Human), UniProt P05177); experiment: CYP inhibition in pooled human liver microsomes; type: in vitro ADME
Method: as §2
The incubation plate was placed into a water bath and pre-warmed at 37° C. for 5 minutes before the reactions were started by the addition of 20 μL of 10 mM NADPH solution and incubated at 37° C. for the time listed above. […]

recombinant human DHODH = recombinant human DHODH (Homo sapiens (Human), UniProt Q02127); experiment: DHODH enzyme assay (Assay A), DCIP absorbance; type: biochemical; settings: bins ≥10 nM-<100 nM and <10 nM; read-out: IC50 DHODH inhibition activity
MOLM-13 cells = experiment: MOLM-13 cell viability (Assay B), Cell Titer-Glo; type: cell-based; settings: Homo sapiens, read-out: IC50 MOLM13 inhibition activity
How it was run: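 Cells at 1,000 per well in RPMI/10% FBS were exposed to compound (10E-5 to 6E-12 M), with or without 100 μM uridine, for 72 h. Viability was read by CellTiter-Glo luminescence. Duplicates were run, and potency was taken from two independent experiments.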

[3] = MOLM-13, 72 hours, bins ≥10 nM-<100 nM and <10 nM

recombinant human DHODH, sequence (Q02127 whole entry): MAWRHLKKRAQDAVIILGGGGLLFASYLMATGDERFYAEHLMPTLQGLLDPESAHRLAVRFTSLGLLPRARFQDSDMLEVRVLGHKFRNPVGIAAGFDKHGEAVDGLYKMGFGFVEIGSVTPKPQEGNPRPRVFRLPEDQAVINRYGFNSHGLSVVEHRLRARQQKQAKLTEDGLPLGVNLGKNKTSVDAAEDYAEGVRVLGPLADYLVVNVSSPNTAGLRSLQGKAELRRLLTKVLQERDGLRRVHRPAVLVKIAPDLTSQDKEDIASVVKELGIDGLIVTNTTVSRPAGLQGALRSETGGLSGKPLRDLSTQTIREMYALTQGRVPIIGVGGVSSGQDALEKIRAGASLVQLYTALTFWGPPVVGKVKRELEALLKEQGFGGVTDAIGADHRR
CYP3A4, sequence (P08684 whole entry): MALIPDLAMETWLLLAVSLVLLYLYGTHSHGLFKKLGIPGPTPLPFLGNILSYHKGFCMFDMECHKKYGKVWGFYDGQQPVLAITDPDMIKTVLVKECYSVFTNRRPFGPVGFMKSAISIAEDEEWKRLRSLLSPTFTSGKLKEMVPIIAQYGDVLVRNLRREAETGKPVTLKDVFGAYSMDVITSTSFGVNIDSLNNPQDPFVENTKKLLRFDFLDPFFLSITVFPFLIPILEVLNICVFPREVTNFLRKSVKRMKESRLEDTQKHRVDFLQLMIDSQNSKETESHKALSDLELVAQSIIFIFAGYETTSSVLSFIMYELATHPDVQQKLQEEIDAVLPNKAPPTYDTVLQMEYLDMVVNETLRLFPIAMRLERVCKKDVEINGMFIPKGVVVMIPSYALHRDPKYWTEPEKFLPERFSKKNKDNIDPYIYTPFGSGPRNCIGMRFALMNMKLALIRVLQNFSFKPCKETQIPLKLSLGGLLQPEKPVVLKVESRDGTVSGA
CYP2C19, sequence (P33261 whole entry): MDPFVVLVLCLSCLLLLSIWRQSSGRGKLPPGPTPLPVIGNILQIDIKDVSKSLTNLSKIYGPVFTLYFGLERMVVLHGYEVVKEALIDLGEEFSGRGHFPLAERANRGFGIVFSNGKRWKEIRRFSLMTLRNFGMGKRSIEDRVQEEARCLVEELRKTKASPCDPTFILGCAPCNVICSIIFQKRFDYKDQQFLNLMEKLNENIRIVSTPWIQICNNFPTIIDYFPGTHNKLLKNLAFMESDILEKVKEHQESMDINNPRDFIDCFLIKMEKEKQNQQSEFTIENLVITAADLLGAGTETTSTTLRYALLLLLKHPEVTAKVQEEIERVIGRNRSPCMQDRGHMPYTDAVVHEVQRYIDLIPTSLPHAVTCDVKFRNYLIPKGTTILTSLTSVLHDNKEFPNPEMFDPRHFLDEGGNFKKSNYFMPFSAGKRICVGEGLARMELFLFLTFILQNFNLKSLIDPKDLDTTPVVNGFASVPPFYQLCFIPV
CYP2B6, sequence (P20813 whole entry): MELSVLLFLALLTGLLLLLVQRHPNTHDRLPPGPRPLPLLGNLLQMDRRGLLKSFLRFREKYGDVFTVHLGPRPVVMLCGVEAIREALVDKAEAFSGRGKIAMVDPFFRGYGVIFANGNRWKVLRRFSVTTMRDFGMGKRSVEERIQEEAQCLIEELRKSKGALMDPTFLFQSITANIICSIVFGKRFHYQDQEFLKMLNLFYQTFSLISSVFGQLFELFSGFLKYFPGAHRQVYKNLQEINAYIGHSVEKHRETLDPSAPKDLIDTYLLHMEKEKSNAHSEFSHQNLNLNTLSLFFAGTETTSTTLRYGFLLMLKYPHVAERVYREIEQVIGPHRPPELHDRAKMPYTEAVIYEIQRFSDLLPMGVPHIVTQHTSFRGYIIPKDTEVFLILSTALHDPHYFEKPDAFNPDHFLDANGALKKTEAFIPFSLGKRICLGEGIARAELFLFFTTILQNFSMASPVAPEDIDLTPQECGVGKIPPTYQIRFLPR
CYP2C9, sequence (P11712 whole entry): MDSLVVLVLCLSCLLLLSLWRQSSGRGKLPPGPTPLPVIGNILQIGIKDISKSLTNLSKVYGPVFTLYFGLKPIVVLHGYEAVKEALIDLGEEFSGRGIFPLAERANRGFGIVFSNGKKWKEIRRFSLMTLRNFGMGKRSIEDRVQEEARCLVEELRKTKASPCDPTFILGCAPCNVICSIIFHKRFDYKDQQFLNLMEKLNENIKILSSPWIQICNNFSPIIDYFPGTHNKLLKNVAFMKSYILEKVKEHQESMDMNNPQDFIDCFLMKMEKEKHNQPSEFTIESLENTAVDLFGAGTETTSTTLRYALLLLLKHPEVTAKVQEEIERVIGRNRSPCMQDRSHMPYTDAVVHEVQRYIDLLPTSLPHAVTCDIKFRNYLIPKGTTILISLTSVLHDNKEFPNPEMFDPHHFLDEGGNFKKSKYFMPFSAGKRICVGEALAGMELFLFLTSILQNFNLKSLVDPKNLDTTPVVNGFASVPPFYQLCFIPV
CYP2E1, sequence (P05181 whole entry): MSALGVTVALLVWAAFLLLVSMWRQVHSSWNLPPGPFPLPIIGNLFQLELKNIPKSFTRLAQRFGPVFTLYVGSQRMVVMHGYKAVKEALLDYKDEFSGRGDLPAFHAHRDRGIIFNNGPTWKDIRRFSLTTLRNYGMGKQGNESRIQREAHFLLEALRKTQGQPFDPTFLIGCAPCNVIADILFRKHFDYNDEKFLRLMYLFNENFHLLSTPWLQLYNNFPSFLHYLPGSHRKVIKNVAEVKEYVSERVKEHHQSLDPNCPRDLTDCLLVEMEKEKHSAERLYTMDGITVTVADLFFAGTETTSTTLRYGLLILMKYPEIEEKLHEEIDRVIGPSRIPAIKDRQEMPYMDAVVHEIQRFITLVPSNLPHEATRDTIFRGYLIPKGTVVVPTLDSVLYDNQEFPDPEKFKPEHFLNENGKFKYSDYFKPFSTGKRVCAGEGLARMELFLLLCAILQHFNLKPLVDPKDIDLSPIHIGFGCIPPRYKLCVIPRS
CYP2C8, sequence (P10632 whole entry): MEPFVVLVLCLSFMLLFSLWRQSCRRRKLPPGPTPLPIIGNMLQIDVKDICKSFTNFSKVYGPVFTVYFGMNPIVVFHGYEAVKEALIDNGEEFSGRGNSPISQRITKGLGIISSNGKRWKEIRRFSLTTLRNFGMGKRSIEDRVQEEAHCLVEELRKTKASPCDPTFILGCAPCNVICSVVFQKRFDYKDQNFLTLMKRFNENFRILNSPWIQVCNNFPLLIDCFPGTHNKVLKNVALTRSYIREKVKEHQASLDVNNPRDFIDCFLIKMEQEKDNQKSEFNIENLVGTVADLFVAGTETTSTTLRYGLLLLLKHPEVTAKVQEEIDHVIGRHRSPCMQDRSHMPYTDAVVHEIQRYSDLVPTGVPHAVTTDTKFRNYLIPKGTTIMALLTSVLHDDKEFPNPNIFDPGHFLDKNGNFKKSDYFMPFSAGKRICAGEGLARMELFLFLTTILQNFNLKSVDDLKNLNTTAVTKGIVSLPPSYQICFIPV
CYP2D6, sequence (P10635 whole entry): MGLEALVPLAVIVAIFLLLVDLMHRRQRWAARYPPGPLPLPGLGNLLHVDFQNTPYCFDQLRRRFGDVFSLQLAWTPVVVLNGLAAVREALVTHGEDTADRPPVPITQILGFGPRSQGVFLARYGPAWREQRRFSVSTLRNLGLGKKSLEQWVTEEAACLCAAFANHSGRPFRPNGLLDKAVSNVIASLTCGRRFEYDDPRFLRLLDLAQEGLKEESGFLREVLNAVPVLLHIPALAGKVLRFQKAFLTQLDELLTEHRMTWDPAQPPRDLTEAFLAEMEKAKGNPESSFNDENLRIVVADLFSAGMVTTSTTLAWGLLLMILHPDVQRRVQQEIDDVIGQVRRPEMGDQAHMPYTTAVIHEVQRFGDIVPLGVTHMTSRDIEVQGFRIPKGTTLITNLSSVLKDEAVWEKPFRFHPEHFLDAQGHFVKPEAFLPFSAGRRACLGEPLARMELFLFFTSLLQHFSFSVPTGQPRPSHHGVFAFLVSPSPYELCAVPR
CYP2A6, sequence (P11509 whole entry): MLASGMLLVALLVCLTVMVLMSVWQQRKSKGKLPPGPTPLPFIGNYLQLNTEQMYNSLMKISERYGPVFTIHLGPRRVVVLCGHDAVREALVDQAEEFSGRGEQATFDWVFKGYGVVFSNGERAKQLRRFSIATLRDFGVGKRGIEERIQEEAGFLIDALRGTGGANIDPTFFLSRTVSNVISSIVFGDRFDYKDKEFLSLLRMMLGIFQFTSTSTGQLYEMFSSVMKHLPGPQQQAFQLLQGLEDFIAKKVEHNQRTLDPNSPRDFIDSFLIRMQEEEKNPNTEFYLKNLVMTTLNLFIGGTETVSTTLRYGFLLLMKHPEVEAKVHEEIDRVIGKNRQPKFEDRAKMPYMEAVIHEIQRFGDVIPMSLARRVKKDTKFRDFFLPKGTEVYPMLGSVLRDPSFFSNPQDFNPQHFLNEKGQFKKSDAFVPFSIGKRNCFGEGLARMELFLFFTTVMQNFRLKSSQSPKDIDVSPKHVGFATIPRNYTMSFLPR
CYP1A2, sequence (P05177 whole entry): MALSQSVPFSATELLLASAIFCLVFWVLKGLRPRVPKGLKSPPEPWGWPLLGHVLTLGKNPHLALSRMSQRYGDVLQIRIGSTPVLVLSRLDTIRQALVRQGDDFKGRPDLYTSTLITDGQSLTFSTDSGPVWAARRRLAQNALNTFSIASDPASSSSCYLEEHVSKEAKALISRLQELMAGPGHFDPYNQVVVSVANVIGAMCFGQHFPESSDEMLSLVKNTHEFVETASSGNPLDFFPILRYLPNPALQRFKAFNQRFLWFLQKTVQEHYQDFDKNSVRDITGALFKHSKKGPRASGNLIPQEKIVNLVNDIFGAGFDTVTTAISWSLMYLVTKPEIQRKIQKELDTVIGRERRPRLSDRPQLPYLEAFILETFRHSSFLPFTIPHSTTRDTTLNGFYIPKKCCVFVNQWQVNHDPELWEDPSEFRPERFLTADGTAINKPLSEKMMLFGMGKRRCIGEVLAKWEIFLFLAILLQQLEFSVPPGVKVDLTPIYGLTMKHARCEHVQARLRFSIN

Row | SMILES | HLM % remaining (in vitro [1]) [%] | half-life at 1 μM (in vitro [1]; pooled liver microsomes) [h] | hHEPs % remaining (in vitro [2]) | half-life at 1 μM (in vitro [2]) [h] | IC50 (CYP2C8) [µM] | IC50 (CYP2B6) [µM] | IC50 (CYP2D6) [µM] | IC50 (CYP2C9) [µM] | IC50 (CYP2A6) [µM] | IC50 (CYP2C19) [µM] | IC50 (CYP2E1) [µM] | IC50 (CYP3A4; IC50 CYP3A4-M, substrate Midozolam) [µM] | IC50 (CYP3A4; IC50 CYP3A4-T, substrate Testosterone) [µM] | IC50 (CYP1A2) [µM] | IC50 (recombinant human DHODH) [µM] | IC50 (MOLM-13 cells; [3]) [µM] | half-life at 1 μM (in vitro [1]; microsomes) [h] | IC50 (MOLM-13 cells; MOLM-13, 72 h) [µM]
1 | COc1ccc(F)c(-n2ncc3c2CCC[C@H]3NC(=O)c2ncn3c2CCCC3)c1Cl [Compound C, reference compound] | 69 | 1.7 | 100% | > 10 | > 30 | > 30 | > 30 | 9.2 | > 30 | 18 | > 30 | 16 | > 30 | > 30 | – | – | – | –
2 | Cc1cccc(F)c1-n1ncc2c1COC[C@H]2NC(=O)c1ncn2c1CCCC2 [Ex-58, (S)—N-(1-(2-fluoro-6-methylphenyl)-1,4,5,7-tetrahydropyrano[3,4-c]pyrazol-4-yl)-5,6,7,8-tetrahydroimidazo[1,5-a]pyridine-1-carboxamide] | 87 | 4.58 | 100% | > 10 | – | – | – | – | – | – | – | – | – | – | 0.01 to 0.1 | 0.01 to 0.1 | – | –
3 | O=C(N[C@@H]1COCc2c1cnn2-c1c(F)cccc1F)c1ncn2c1CCCC2 [Ex-59, (S)—N-(1-(2,6-difluorophenyl)-1,4,5,7-tetrahydropyrano[3,4-c]pyrazol-4-yl)-5,6,7,8-tetrahydroimidazo[1,5-a]pyridine-1-carboxamide] | 91 | > 6.08 | 100% | > 10 | – | – | – | – | – | – | – | – | – | – | 0.01 to 0.1 | 0.01 to 0.1 | – | –
4 | COc1cccc(C)c1-n1ncc2c1COC[C@H]2NC(=O)c1ncn2c1CCCC2 [Ex-61, (S)—N-(1-(2-methoxy-6-methylphenyl)-1,4,5,7-tetrahydropyrano[3,4-c]pyrazol-4-yl)-5,6,7,8-tetrahydroimidazo[1,5-a]pyridine-1-carboxamide] | 94 | > 6.08 | 100% | > 10 | – | – | – | – | – | – | – | – | – | – | 0.01 to 0.1 | 0.01 to 0.1 | – | –
5 | CC(C)OC(=O)c1cccc(-n2ncc3c2COC[C@H]3NC(=O)c2ncn3c2CCCC3)c1Cl [Ex-69, Isopropyl (S)-2-chloro-3-(4-(5,6,7,8-tetrahydroimidazo[1,5-a]pyridine-1-carboxamido)-4,7-dihydropyrano[3,4-c]pyrazol-1(5H)-yl)benzoate] | 0.14 | – | BLOD@ | 0.0767 | – | – | – | – | – | – | – | – | – | – | < 0.01 | – | 0.122 | < 0.01

Source: US20250388602A1 (Genase Therapeutics B.V., priority 2022, published 2025)
